Results: US8415469B2, “Compounds and methods for kinase modulation, and indications therefor” (Plexxikon Inc., priority 2005, dated 2013)

Key:
Type in all cases: biochemical
Kit = biological target: T1, Kit (Homo sapiens, UniProt P10721); experiment: AlphaScreen kinase assay, Kit; conditions: read-out: IC50, activity toward kinase Kit
T1 construct: P1332.N6 BI PTP KIT M552-K948-X COD; His6 (N); made in house; host or cells: E. coli (PTP1B co-expressed)

Zap70 = biological target: T2, Zap70 (Homo sapiens, UniProt P43403); experiment: AlphaScreen kinase assay, Zap70; conditions: read-out: IC50, activity toward kinase Zap70
T2 construct: P1868.pFastBac1 ZAP70 D327-G606 HIS, WT; His7 (HHHHHHH) (C); made in house
T2 sequence (P43403 with tags, fused parts or gaps): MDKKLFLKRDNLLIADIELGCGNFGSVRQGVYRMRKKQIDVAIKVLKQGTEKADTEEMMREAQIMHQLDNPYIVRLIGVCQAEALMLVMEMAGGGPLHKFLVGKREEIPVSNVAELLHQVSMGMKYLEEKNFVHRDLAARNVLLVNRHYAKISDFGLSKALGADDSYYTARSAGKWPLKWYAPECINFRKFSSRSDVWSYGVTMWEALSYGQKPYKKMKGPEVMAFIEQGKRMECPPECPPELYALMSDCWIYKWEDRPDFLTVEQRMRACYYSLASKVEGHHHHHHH
Procedure, shortened: (§1)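 Eight concentrations per compound (1:3 serial dilution of 20 mM DMSO stock) were tested. Read-out: AlphaScreen signal from phospho-antibody acceptor and streptavidin donor beads bound to biotinylated peptide substrate, reduced on kinase inhibition.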

Ret = biological target: T3, Ret (Homo sapiens, UniProt P07949); experiment: AlphaScreen kinase assay, Ret; conditions: read-out: IC50, activity toward kinase Ret
T3 construct: P1378.pET-SF BI-PTP RET H661-R1012 HIS; made in house
T3 sequence (P07949 with tags, fused parts or gaps): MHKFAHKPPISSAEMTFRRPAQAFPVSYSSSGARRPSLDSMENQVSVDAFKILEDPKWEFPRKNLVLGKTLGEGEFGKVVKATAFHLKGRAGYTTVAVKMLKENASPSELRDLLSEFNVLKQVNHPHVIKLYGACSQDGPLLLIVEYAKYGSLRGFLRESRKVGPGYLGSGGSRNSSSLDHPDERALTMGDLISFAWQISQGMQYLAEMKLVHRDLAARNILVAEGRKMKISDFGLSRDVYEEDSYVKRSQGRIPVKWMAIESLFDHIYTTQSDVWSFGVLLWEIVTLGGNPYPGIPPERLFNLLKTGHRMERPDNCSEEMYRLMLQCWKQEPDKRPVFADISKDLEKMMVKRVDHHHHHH

Erk2 = biological target: T4, Erk2 (Homo sapiens, UniProt P28482); experiment: AlphaScreen kinase assay, Erk2; conditions: read-out: IC50, activity toward kinase Erk2
T4 construct: P4227.pET15S ERK2/MEK1DD; His6 with thrombin site (N); made in house
From the text: AlphaScreen assay was used to screen additional kinases. The assay is similarly dependent on the phosphorylation of a peptide substrate. In this assay, an antibody that recognizes phosphorylated substrate is bound to an acceptor bead. The peptide substrate is attached to biotin, which binds to a donor head that contains streptavidin. Thus phosphorylated substrate is bound by antibody and streptavidin, bringing the donor and acceptor heads into close proximity when kinase is not inhibited. The donor produces singlet oxygen which results in emission from the acceptor when they are in close proximity. Conversely, when kinase is inhibited, the donor and acceptor beads are not associated and the emission from the acceptor is reduced.
AlphaScreen assays were done using compounds dissolved in DMSO to a concentration of 20 mM. The compounds were diluted accordingly to the desired final concentrations in each sample well, using 1:3 serial dilution for a total of 8 concentration points.

Pyk2 = biological target: T5, Pyk2 (Homo sapiens, UniProt Q14289); experiment: AlphaScreen kinase assay, Pyk2; conditions: read-out: IC50, activity toward kinase Pyk2
T5 construct: purchased Upstate Biotechnology

Fak = biological target: T6, Fak (Homo sapiens, UniProt Q05397); experiment: AlphaScreen kinase assay, Fak; conditions: read-out: IC50, activity toward kinase Fak
T6 construct: P1358.pFastBacHtb FAK S411-Q686-X; His6 with pFastBacHTb leader (TEV site) (N); made in house; host or cells: Sf9 (baculovirus)

FGFR1 = biological target: T7, FGFR1 (Homo sapiens, UniProt P11362, C488A/C584S); experiment: AlphaScreen kinase assay, FGFR1; conditions: read-out: IC50, activity toward kinase FGFR
T7 construct: P1351.pET N6 BI-PTP FGFR A458-E765-X C488A, C584S; made in house; host or cells: E. coli (PTP1B co-expressed)

Kdr = biological target: T8, Kdr (Homo sapiens, UniProt P35968); experiment: Z'-Lyte FRET kinase assay (Invitrogen), Kdr; conditions: read-out: IC50, activity toward kinase Kdr
T8 construct: purchased Invitrogen (assay run by Invitrogen)

Abl = biological target: T9, Abl (Homo sapiens, UniProt P00519); experiment: AlphaScreen kinase assay, Abl; conditions: read-out: activity toward kinase Abl, IC50
T9 construct: P1121. pET-SPEC BI-PTP Abl G227-V515-X; His6 (N); made in house; host or cells: E. coli (PTP1B co-expressed)
T9 sequence (P00519 with tags, fused parts or gaps): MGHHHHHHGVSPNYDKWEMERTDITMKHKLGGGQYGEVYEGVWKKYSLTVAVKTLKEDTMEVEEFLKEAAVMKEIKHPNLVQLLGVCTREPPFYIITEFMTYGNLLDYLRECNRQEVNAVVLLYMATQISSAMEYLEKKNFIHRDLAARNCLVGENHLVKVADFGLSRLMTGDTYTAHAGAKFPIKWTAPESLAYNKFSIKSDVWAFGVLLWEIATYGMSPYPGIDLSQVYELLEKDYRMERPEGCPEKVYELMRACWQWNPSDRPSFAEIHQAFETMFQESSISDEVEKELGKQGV
Procedure, shortened: as §1

Plk1 = Plk1 (Homo sapiens, UniProt P53350); experiment: AlphaScreen kinase assay, Plk1; conditions: read-out: IC50, activity toward kinase Plk1
Procedure, shortened: as §1

Gsk3β = Gsk3β (Homo sapiens, UniProt P49841); experiment: AlphaScreen kinase assay, Gsk3β; conditions: read-out: IC50, activity toward kinase Gsk3β
Procedure, shortened: as §1

IGF1R = IGF1R (Homo sapiens, UniProt P08069); experiment: AlphaScreen kinase assay, IGF1R; conditions: read-out: IC50, activity toward kinase IGF1R
Experimental: AlphaScreen assays were done using compounds dissolved in DMSO to a concentration of 20 mM. The compounds were diluted accordingly to the desired final concentrations in each sample well, using 1:3 serial dilution for a total of 8 concentration points. Plates were prepared such that each kinase reaction is 20 μl in 1× kinase buffer, 5% DMSO and 10 μM ATP. After incubation of the kinase reaction for 1 hour at room temperature, 5 μl of donor beads in stop buffer (50 mM EDTA in 1× kinase buffer) was added, the sample was mixed and incubated for 20 minutes at room temperature before adding 5 μl of acceptor beads in stop buffer. The samples were incubated for 60 minutes at room temperature and the signal per well was read on AlphaQuest reader.

Akt3 = Akt3 (Homo sapiens, UniProt Q9Y243); experiment: AlphaScreen kinase assay, Akt3; conditions: read-out: IC50, activity toward kinase Akt3
Procedure, shortened: as §1

Flt1 = biological target: T10, Flt1 (Homo sapiens, UniProt P17948); experiment: AlphaScreen kinase assay, Flt1; conditions: read-out: IC50, activity toward kinase Flt1
T10 construct: P1826.pETN6 BI-PTP FLT1 M799-D1165-X WT; His6 (N); made in house; host or cells: E. coli (PTP1B co-expressed)
T10 sequence (P17948 with tags, fused parts or gaps): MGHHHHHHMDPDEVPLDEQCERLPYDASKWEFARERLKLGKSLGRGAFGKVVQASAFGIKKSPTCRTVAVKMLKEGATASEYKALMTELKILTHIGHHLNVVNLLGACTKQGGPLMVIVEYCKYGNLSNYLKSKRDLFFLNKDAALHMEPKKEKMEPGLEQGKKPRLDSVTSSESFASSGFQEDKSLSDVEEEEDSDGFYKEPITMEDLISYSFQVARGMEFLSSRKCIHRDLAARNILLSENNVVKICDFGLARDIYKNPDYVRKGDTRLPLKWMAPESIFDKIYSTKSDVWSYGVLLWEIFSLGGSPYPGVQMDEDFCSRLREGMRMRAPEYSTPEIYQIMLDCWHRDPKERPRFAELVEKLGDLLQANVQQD

Stk6 = biological target: T11, Stk6 (Homo sapiens, UniProt O14965); experiment: Z'-Lyte FRET kinase assay (Invitrogen), Stk6; conditions: read-out: IC50, activity toward kinase Stk6
T11 construct: purchased Invitrogen (Carlsbad, Calif.), screening service
T11 sequence (O14965 1-403): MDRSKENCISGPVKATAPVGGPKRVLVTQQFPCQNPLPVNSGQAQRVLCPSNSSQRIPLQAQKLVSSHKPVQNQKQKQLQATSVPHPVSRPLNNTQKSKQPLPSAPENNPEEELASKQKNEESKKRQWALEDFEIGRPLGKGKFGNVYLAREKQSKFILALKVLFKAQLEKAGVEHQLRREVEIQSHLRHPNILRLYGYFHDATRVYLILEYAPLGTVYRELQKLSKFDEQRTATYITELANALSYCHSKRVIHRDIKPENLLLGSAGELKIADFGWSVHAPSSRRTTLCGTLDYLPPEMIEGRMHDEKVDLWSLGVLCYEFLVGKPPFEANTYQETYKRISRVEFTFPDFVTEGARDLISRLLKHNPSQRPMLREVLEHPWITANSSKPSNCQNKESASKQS

B-Raf V600E = biological target: T12, B-Raf V600E (Homo sapiens, UniProt P15056, V600E); experiment: AlphaScreen kinase assay, B-Raf V600E; conditions: read-out: IC50, activity toward kinase B-Raf V600E
T12 construct: P4254. pFastBacBD-CDC37 BRAF D437-K722-X, V600E; His6 with pFastBac HT leader (TEV site) (N); made in house; host or cells: Sf9 (baculovirus; chaperone CDC37 co-expressed)

Met = biological target: T13, Met (Homo sapiens, UniProt P08581); experiment: AlphaScreen kinase assay, Met; conditions: read-out: IC50, activity toward kinase Met
T13 construct: P1818.pETN6 BI-PTP MET G1056-G1364-X WT; His6 (N); made in house; host or cells: E. coli (PTP1B co-expressed)
Procedure, shortened: as §1

Flt4 = biological target: T14, Flt4 (Homo sapiens, UniProt P35916); experiment: AlphaScreen kinase assay, Flt4; conditions: read-out: IC50, activity toward kinase Flt4
T14 construct: purchased ProQinase GmbH (Freiburg, Germany)
Procedure, shortened: as §1

Jnk3 = biological target: T15, Jnk3 (Homo sapiens, UniProt P53779); experiment: AlphaScreen kinase assay, Jnk3; conditions: read-out: IC50, activity toward kinase Jnk3
T15 construct: purchased Upstate Biotechnology

Src = biological target: T16, Src (Homo sapiens, UniProt P12931); experiment: AlphaScreen kinase assay, Src; conditions: read-out: IC50, activity toward kinase Src
T16 construct: P1144. pET-N6 BI-PTP SRC V86-L536-X; made in house

B-Raf = biological target: T17, B-Raf (Homo sapiens, UniProt P15056); experiment: AlphaScreen kinase assay, B-Raf; conditions: read-out: IC50, activity toward kinase B-Raf
T17 construct: purchased Upstate Biotechnology

Itk = biological target: T18, Itk (Homo sapiens, UniProt Q08881); experiment: AlphaScreen kinase assay, Itk; conditions: read-out: IC50, activity toward kinase Itk
T18 sequence (Q08881 1-620): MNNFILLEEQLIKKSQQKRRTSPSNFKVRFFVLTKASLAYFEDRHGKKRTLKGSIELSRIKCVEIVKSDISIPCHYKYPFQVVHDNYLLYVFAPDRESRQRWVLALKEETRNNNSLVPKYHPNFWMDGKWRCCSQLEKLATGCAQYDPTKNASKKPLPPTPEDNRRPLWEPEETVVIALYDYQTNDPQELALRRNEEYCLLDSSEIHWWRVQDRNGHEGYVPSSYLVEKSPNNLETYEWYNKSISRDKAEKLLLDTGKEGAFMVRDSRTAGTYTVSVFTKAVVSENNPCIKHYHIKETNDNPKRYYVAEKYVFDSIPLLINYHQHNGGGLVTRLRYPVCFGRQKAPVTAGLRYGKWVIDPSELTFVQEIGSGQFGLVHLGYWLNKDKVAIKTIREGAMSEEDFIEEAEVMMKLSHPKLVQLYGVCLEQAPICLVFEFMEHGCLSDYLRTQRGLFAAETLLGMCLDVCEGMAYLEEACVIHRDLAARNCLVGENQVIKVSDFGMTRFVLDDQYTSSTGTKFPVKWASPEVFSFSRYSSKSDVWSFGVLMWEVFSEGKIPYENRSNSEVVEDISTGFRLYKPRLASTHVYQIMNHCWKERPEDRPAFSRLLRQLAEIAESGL
Procedure, shortened: as §1

MAP2K1 = biological target: T19, MAP2K1 (Homo sapiens, UniProt Q02750); experiment: Z'-Lyte FRET kinase assay (Invitrogen), MAP2K1; conditions: read-out: IC50, activity toward kinase MAP2K1
T19 construct: purchased Invitrogen (assay run by Invitrogen)

Btk = biological target: T20, Btk (Homo sapiens, UniProt Q06187); experiment: Z'-Lyte FRET kinase assay (Invitrogen), Btk; conditions: read-out: IC50, activity toward kinase Btk
T20 construct: purchased Invitrogen (assay run by Invitrogen)

Yes = biological target: T21, Yes (Homo sapiens, UniProt P07947); experiment: Z'-Lyte FRET kinase assay (Invitrogen), Yes; conditions: read-out: IC50, activity toward kinase Yes
T21 construct: purchased Invitrogen (Carlsbad, Calif.), screening service
Procedure, shortened: (§2)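 Under a compound concentration curve, the kinase acted on a dual-labelled peptide at 2 μM with ATP at 10 μM for one hour at ambient temperature (buffer pH 7.5, 1% DMSO). Phosphorylation extent came from the emission ratio after protease development.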

PKC theta = biological target: T22, PKC theta (Homo sapiens, UniProt Q04759); experiment: Z'-Lyte FRET kinase assay (Invitrogen), PKC theta; conditions: read-out: IC50, activity toward kinase PKC theta
T22 construct: purchased Invitrogen (Carlsbad, Calif.), screening service
Procedure, shortened: as §2

Measured: IC50

T1 sequence (P10721 with tags, fused parts or gaps): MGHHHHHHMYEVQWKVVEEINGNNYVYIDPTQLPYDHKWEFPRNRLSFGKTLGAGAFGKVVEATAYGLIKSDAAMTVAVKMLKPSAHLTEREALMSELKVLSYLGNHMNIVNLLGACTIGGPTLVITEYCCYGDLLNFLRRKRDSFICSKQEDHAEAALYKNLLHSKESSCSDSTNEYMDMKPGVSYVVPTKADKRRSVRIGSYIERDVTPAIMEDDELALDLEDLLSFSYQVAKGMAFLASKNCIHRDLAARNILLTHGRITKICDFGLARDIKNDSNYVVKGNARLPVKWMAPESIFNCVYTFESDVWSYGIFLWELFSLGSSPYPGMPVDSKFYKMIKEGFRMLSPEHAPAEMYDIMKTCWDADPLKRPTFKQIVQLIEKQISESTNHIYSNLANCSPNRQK
T4 sequence (P28482 with tags, fused parts or gaps): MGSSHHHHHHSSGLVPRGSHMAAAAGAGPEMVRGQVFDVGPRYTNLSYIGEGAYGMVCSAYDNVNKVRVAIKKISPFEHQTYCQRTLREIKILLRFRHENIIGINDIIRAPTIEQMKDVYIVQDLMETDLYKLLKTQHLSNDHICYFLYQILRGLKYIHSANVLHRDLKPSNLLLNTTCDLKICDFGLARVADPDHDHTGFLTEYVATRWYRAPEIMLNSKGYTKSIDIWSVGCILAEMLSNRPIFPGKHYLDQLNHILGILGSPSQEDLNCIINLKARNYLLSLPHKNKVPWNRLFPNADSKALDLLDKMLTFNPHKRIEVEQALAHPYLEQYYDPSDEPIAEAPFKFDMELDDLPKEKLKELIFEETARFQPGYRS
T8 sequence (P35968 20-1356): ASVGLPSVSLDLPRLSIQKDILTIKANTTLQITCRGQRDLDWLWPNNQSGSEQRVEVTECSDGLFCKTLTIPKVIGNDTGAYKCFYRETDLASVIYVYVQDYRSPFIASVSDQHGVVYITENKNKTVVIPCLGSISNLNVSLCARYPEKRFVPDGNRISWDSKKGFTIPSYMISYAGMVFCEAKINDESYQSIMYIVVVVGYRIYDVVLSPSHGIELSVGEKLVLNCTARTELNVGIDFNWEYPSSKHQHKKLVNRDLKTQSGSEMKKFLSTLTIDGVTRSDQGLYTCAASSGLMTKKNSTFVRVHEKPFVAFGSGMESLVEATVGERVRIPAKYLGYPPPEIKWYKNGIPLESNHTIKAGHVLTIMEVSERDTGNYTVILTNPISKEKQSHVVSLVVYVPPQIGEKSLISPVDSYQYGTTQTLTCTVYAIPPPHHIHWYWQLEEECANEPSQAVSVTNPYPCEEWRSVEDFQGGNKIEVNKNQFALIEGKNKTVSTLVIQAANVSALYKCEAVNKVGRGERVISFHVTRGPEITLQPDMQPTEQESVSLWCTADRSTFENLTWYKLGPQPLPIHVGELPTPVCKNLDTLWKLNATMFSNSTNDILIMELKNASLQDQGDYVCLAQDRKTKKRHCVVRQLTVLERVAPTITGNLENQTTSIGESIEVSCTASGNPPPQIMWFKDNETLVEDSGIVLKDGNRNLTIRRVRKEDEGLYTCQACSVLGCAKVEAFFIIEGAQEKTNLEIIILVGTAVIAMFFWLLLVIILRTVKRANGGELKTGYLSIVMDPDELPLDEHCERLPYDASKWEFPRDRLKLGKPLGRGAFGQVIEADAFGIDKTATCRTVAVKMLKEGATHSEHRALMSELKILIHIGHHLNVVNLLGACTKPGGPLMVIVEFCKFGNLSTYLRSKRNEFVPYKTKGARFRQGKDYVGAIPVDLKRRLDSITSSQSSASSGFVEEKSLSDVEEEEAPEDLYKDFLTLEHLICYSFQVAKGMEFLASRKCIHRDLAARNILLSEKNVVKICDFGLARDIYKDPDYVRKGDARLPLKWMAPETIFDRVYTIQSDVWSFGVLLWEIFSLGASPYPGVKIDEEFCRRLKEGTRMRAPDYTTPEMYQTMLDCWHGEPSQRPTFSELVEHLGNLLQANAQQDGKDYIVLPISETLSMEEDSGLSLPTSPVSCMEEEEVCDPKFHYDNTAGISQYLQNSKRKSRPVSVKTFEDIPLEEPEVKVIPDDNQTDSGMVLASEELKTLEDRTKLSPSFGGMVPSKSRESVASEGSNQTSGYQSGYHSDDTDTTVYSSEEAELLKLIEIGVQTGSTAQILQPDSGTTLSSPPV
T15 sequence (P53779 whole entry): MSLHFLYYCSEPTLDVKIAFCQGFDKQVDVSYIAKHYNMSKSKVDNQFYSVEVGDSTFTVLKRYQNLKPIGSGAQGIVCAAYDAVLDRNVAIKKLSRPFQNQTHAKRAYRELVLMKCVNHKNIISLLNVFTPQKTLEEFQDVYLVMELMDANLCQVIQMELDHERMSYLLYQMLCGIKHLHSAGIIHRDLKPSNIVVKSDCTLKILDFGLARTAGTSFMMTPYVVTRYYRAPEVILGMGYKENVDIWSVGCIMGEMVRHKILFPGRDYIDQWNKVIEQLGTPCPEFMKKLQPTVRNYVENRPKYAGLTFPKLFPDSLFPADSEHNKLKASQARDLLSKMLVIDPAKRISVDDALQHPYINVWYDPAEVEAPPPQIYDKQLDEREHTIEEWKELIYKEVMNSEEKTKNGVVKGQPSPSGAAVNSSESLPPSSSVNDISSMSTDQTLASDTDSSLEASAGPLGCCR
T5 sequence (Q14289 whole entry): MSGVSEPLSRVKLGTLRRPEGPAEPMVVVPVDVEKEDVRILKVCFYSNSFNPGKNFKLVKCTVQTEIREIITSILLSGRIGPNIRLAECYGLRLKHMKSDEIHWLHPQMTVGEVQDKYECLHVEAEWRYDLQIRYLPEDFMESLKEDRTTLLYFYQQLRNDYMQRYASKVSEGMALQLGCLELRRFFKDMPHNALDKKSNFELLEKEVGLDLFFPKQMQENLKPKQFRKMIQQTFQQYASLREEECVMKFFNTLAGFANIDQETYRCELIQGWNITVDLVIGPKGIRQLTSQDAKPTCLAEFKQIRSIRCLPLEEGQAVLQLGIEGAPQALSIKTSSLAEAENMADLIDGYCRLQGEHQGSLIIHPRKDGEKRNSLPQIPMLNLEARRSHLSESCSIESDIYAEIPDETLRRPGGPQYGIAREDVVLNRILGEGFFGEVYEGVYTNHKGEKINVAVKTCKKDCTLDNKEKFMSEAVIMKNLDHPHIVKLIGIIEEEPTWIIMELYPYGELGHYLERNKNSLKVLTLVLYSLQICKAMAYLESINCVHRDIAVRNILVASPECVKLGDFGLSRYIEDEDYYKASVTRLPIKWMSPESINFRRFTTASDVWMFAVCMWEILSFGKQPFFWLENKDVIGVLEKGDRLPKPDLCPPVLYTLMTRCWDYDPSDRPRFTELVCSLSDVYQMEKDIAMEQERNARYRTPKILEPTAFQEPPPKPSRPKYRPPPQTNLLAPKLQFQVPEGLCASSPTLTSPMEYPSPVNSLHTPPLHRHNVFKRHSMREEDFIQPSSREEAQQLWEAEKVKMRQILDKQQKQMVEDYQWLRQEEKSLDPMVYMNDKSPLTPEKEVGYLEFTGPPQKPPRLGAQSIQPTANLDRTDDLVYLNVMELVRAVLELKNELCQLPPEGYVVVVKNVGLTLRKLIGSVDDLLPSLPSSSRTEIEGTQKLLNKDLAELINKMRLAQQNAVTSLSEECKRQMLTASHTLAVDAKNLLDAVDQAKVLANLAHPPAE
T7 sequence (P11362 458-765 C488A/C584S): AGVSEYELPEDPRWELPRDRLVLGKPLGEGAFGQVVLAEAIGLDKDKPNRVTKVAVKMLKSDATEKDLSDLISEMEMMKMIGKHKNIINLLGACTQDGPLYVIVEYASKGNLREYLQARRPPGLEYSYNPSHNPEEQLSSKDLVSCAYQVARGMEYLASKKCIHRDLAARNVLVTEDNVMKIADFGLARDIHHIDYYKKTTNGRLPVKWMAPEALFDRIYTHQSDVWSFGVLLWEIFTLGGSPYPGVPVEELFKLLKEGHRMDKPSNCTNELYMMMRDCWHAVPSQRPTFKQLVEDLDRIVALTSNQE
Sequence of Plk1 (P53350 whole entry): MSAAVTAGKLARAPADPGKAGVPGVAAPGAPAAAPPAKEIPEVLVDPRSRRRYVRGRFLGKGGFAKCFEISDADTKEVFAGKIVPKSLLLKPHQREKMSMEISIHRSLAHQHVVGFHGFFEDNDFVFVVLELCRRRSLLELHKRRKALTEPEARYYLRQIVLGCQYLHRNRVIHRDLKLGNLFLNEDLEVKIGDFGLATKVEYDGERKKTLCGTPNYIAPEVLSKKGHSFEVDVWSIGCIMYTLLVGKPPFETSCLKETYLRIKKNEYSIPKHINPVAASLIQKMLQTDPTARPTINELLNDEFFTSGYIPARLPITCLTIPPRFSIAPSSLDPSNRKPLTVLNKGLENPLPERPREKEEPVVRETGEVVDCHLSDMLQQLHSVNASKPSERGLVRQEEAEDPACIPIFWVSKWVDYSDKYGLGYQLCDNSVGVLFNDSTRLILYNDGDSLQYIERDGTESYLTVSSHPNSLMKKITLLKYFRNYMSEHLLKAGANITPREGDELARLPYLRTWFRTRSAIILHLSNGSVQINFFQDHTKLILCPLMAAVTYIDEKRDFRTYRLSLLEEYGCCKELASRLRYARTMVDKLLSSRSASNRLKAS
T12 sequence (P15056 with tags, fused parts or gaps V600E): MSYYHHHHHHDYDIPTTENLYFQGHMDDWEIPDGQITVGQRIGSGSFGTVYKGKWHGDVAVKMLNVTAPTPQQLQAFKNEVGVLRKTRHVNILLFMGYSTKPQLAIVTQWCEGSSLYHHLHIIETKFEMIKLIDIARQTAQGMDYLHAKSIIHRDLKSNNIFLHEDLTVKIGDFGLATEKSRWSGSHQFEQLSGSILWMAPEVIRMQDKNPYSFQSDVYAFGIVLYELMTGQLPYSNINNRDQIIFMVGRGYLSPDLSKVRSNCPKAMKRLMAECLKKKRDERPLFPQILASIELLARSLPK

O=S(=O)(NCc1c[nH]c2ncccc12)c1ccc(N2CCOCC2)nc1 [Compound P-0611]
≤ 10 µM: Kit | Zap70 | Ret | Erk2 | Pyk2 | Fak | FGFR1 | Kdr | Abl

Cc1cccc(-c2ccnc3[nH]cc(CNS(=O)(=O)C(F)(F)F)c23)c1 [Compound P-0154]
≤ 10 µM: Kit | Plk1 | Erk2 | Gsk3β | IGF1R | Akt3 | Flt1 | Stk6

O=S(=O)(NCc1c[nH]c2ncccc12)c1cc(Cl)c(Cl)s1 [Compound P-0550]
not listed: Fak | Plk1 | Gsk3β | IGF1R | Akt3 | Stk6 | Itk | MAP2K1 | Btk | Yes | PKC theta
≤ 10 µM: all other assays above

Cc1cc(C)cc(-c2ccnc3[nH]cc(C=O)c23)c1 [Compound P-0031]
≤ 10 µM: Kit | Itk | MAP2K1 | Plk1 | Jnk3 | Erk2 | IGF1R | Btk | Yes | Kdr | PKC theta | Stk6
